We go through 2 molecules from patent US20130078185A1, “NITROIMIDAZOLE DERIVATIVES” (GE HEALTHCARE LIMITED, priority 2010, published 2013).

In general, IC50 refers to the concentration that gives 50% inhibition. The term MIC denotes the lowest concentration that inhibits growth of the organism. Lower therefore signals greater potency.

Converted amounts (≈) assume the structure as drawn. Where two headings read alike, the source gives them in different places.

In one assay the test system is VERO cells. Kind of assay: cells. The assay is classed as cell-based, African green monkey (Cercopithecus aethiops). As to conditions: Chlorocebus sabaeus.
For assay [1], the system named is Mycobacterium tuberculosis strain H37Rv. As to the kind of experiment: microplate alamar blue assay (MABA) MIC. As to conditions: M. tuberculosis H37Rv, BACTEC 12B medium, MIC90 = 90% reduction in fluorescence relative to controls. The assay is classed as cell-based. As for the experimental part: Screening was done to get MIC for M. tuberculosis using both the microplate alamar blue assay (MABA) and low-oxygen recovery assay (LORA).
The initial screen was conducted against Mycobacterium tuberculosis strain H37Rv (American Type Culture Collection number 27294) in BACTEC 12B medium (Becton-Dickinson) using the MABA. Compounds were tested in ten 2-fold dilutions, typically from 100 μg/mL to 0.19 μg/mL. The MIC90 is defined as the concentration effecting a reduction in fluorescence of 90% relative to controls. This value is determined from the dose-response curve using a curve-fitting program. Any MIC90 value of ≦10 μg/mL was considered “active” for antitubercular activity. 3(h) Method for Determining IC50
(Alamar Blue is a resazurin reagent that responds to reducing activity.)

In turn, `C[C@]1(COc2ccccc2)Cn2cc([N+](=O)[O-])nc2O1` [Example 1, (R)-2-Methyl-6-nitro-2-(phenoxymethyl)-2,3-dihydroimidazo[2,1-b]oxazole] came in with an IC50 in the assay with VERO cells (Vero, 72 h) of over 50 µg/mL. Moreover, the MIC in assay [1] is 1.33 µg/mL (≈ 4.83 µM).
For `C[C@]1(COc2ccc(I)cc2)Cn2cc([N+](=O)[O-])nc2O1` [Example 2, (R)-2-((4-Iodophenoxy)methyl)-2-methyl-6-nitro-2,3-dihydroimidazo[2,1-b]oxazole], the half-maximal inhibitory concentration (IC50) in the assay with VERO cells (VERO cell cytotoxicity, 72 hours exposure, ATP viability readout, read-out: IC50) is over 50 µg/mL. In assay [1], this molecule registered an MIC of under 0.195 µg/mL.
